Usually Ki stands for a dissociation constant, usually derived from enzyme kinetics or from competition with a known ligand.

Results on two compounds are retold here after paper PMC9655728, “In Vitro and In Silico Analysis of New n-Butyl and Isobutyl Quinoxaline-7-carboxylate 1,4-di-N-oxide Derivatives against Trypanosoma cruzi as Trypanothione Reductase Inhibitors” (International Journal of Molecular Sciences, 2022).

Format in all cases: biochemical
Test [1] deals with T1, trypanothione reductase (TR) (Trypanosoma brucei, UniProt P39051).
T1 construct: gene TPR; recombinant Trypanosoma brucei TR
Briefly: spectrophotometric NADPH consumption ([…] nm) with TS2; % inhibition at […] ([…] TS2). To be noted: read-out: % Inhibition of TR / 44 μM [TS2].

Test [2] addresses T2, human glutathione reductase (hGR) (Homo sapiens, UniProt P00390).
T2 construct: gene GSR; recombinant human glutathione reductase
T2 sequence (P00390 44-522): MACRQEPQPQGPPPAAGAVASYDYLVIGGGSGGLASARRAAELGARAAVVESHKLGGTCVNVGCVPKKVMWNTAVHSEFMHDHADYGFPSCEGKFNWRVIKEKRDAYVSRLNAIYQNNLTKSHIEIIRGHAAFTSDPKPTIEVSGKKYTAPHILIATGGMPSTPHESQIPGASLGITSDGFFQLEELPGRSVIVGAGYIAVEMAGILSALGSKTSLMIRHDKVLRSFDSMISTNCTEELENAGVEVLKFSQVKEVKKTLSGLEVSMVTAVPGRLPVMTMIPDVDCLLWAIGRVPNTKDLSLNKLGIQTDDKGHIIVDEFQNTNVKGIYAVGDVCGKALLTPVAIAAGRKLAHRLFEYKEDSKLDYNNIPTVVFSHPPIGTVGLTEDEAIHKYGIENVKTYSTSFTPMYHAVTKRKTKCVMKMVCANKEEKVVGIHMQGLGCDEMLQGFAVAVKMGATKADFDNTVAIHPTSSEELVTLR
Briefly: spectrophotometric NADPH consumption ([…] nm) with GSSG; Lineweaver-Burk and non-linear regression.

In test [3] the target is T1, trypanothione reductase (TR). The test can be described thus: spectrophotometric NADPH consumption ([…] nm) with TS2; Lineweaver-Burk and non-linear regression.

T1 sequence (P39051 whole entry): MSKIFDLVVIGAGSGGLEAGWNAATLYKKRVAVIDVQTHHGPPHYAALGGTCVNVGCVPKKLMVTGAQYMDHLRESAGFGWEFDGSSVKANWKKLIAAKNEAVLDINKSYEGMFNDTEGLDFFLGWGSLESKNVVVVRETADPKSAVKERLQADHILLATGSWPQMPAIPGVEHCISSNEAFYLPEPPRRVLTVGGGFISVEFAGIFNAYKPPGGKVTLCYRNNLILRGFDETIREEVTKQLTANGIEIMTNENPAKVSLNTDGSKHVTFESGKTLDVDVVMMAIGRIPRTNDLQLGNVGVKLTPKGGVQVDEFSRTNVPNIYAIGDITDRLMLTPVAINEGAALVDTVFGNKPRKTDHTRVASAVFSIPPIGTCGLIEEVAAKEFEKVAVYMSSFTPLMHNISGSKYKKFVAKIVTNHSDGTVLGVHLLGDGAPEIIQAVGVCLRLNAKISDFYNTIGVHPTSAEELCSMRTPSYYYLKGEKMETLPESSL

With `CCCCOC(=O)c1ccc2c(c1)[n+]([O-])c(C(=O)c1ccccc1)c(C(F)(F)F)[n+]2[O-]` [T-148], in test [1], the inhibition at 20 µM came to 36%. As for `CCCCOC(=O)c1ccc2c(c1)[n+]([O-])c(C(=O)C(C)(C)C)c(C(F)(F)F)[n+]2[O-]` [T-147], the values for the Ki in test [2] and in test [3] were 25 µM and 11.4 µM, respectively.
